Results reported in publication PMC6257622, “Discovery and Structure–Activity-Relationship Study of N-Alkyl-5-hydroxypyrimidinone Carboxamides as Novel Antitubercular Agents Targeting Decaprenylphosphoryl-β-D-ribose 2′-Oxidase” (Journal of Medicinal Chemistry, 2018).
≈ marks a conversion by molar mass, not a printed value. Like-named read-outs stand apart in the source and are kept apart here.

Columns and labels:
in vitro = type: cell-based; details: human; HepG2 cells in DMEM/10% FBS supplemented with glucose; read-out: Cytotoxicity (IC50) Glucose
HepG2 cells = test: in vitro; type: cell-based
Mtb strain H37Rv = test: MIC determination against Mtb H37Rv in different media; type: cell-based, Mycobacterium tuberculosis; details: for antitubercular activity (in words): SAR discussion
[1] = system: Mtb in J774 murine macrophages; test: Intracellular killing assay in murine macrophage J774; details: 1–50-fold MIC, 4 or 7 days
Procedure: For the ex vivo efficacy test, J774 cells (5 × 10^5 cells/well) were seeded in flat-bottom 24-well plates (Corning Inc.) in DMEM GlutaMAX (Gibco/ThermoFisher Scientific) supplemented with 10% fetal-bovine serum, 20 mM HEPES, and 0.5 mM sodium pyruvate (hereafter abbreviated as DMEM/FBS). Cells were infected with Mtb (5 × 10^5 cells/well, MOI 1) for 24 h; this was followed by medium removal and washing (2×) with an equal volume of Dulbecco’s PBS. Infected cells were fed DMEM/FBS and exposed to test compounds at 1×, 10×, 20×, and 50× MIC in medium (500 μL/well). Cells were incubated at 37 °C with 95% humidity and 5% CO2 in an incubator for 7 days. The medium was changed every 4 days. After 4 and 7 days of incubation, 0.1% SDS was added to each well to lyse the J774 cells. After 5 min, the lysate was thoroughly mixed and diluted in 7H9/ADC, and appropriate dilutions were plated in duplicate on 7H11/OADC plates.

[2] = HepG2 cells in DMEM/10% FBS with galactose (mitochondrial toxicity), read-out: Cytotoxicity (IC50) Galactose
[3] = Mycobacterium tuberculosis, H37RV, Mtb H37Rv in GAST (Table 2), read-out: MIC GAST
[4] = Mycobacterium tuberculosis, H37RV, supplementary CSV, read-out: MIC in 7H9/ADC
[5] = Mycobacterium tuberculosis, H37RV, supplementary CSV, read-out: MIC in GAST/Fe
[6] = Mycobacterium tuberculosis, H37RV, read-out: MIC 7H9/ADC
[7] = Mtb H37Rv in GAST (Table 2), read-out: MIC GAST
[8] = HepG2 cells in DMEM/10% FBS supplemented with glucose, read-out: Cytotoxicity (IC50) Glucose
[9] = supplementary CSV, read-out: MIC in 7H9/ADC
[10] = supplementary CSV, read-out: MIC in GAST/Fe

| Molecule | IC50 (in vitro) [µM] | IC50 (HepG2 cells; [2]) [µM] | MIC (Mtb strain H37Rv; [3]) [µM] | MIC (Mtb strain H37Rv; [4]) [µM] | MIC (Mtb strain H37Rv; [5]) [µM] | MIC (Mtb strain H37Rv; [6]) [µM] | activity against Mtb replication in J774 murine macrophages [1] | MIC (Mtb strain H37Rv; [7]) [µM] | fold increase in MIC (reduced potency) compared with P01 (Mtb strain H37Rv) | fold more potent than regioisomer P10 (Mtb strain H37Rv; o-F versus p-F) [fold] | antitubercular activity (in words) (Mtb strain H37Rv) | IC50 (HepG2 cells; [8]) [µM] | MIC (Mtb strain H37Rv; read-out: MIC 7H9/ADC) [µM] | MIC (Mtb strain H37Rv; [9]) [µM] | MIC (Mtb strain H37Rv; [10]) [µM] |
| --- | --- | --- | --- | --- | --- | --- | --- | --- | --- | --- | --- | --- | --- | --- | --- |
| Cn1c(Cc2ccccc2)nc(C(=O)NCc2ccccc2)c(O)c1=O [Compound P02, N,2-Dibenzyl-5-hydroxy-1-methyl-6-oxo-1,6-dihydropyrimidine-4-carboxamide] | > 100 | > 100 | 3.1 (≈ 1.08 µg/mL) | 9.4 (≈ 3.28 µg/mL) | 3.1 (≈ 1.08 µg/mL) | 9.4 (≈ 3.28 µg/mL) | – | – | – | – | – | – | – | – | – |
| CCn1c(Cc2ccccc2C(F)(F)F)nc(C(=O)NCc2ccccc2)c(O)c1=O [Compound P04, N-Benzyl-1-ethyl-5-hydroxy-6-oxo-2-(2-(trifluoromethyl)benzyl)-1,6-dihydropyrimidine-4-carboxamide] | > 100 | > 100 | 0.4 (≈ 0.173 µg/mL) | 2.3 (≈ 0.992 µg/mL) | 0.39 (≈ 0.168 µg/mL) | 2.3 (≈ 0.992 µg/mL) | active | 0.39 (≈ 0.168 µg/mL) | – | – | – | – | – | – | – |
| Cn1c(Cc2ccccc2C(F)(F)F)nc(C(=O)Nc2ccccc2)c(O)c1=O [Compound P05, 5-Hydroxy-1-methyl-6-oxo-N-phenyl-2-(2-(trifluoromethyl)benzyl)-1,6-dihydropyrimidine-4-carboxamide] | > 100 | > 100 | 1.6 (≈ 0.645 µg/mL) | 18.8 (≈ 7.58 µg/mL) | 1.6 (≈ 0.645 µg/mL) | 18.8 (≈ 7.58 µg/mL) | – | – | around 4 fold | – | – | – | – | – | – |
| Cn1c(Cc2ccccc2C(F)(F)F)nc(C(=O)NCC2CCCCC2)c(O)c1=O [Compound P06, N-(Cyclohexylmethyl)-5-hydroxy-1-methyl-6-oxo-2-(2-(trifluoromethyl)benzyl)-1,6-dihydropyrimidine-4-carboxamide] | > 100 | > 100 | 12.5 (≈ 5.29 µg/mL) | > 100 | 12.5 (≈ 5.29 µg/mL) | > 100 | – | – | – | – | – | – | – | – | – |
| Cn1c(Cc2ccccc2C(F)(F)F)nc(C(=O)NCc2ccccn2)c(O)c1=O [Compound P07, 5-Hydroxy-1-methyl-6-oxo-N-(pyridin-2-ylmethyl)-2-(2-(trifluoromethyl)benzyl)-1,6-dihydropyrimidine-4-carboxamide] | > 100 | > 100 | 1.2 (≈ 0.502 µg/mL) | 3.1 (≈ 1.3 µg/mL) | 1.2 (≈ 0.502 µg/mL) | 3.1 (≈ 1.3 µg/mL) | active | – | – | – | – | – | – | – | – |
| Cn1c(Cc2ccccc2C(F)(F)F)nc(C(=O)NCc2cccnc2)c(O)c1=O [Compound P08, 5-Hydroxy-1-methyl-6-oxo-N-(pyridin-3-ylmethyl)-2-(2-(trifluoromethyl)benzyl)-1,6-dihydropyrimidine-4-carboxamide] | > 100 | > 100 | 4.7 (≈ 1.97 µg/mL) | 18.8 (≈ 7.87 µg/mL) | 4.7 (≈ 1.97 µg/mL) | 18.8 (≈ 7.87 µg/mL) | – | – | – | – | – | – | – | – | – |
| Cn1c(Cc2ccccc2C(F)(F)F)nc(C(=O)NCc2ccccc2F)c(O)c1=O [Compound P09, N-(2-Fluorobenzyl)-5-hydroxy-1-methyl-6-oxo-2-(2-(trifluoromethyl)benzyl)-1,6-dihydropyrimidine-4-carboxamide] | > 100 | > 100 | 0.59 (≈ 0.257 µg/mL) | 4.7 (≈ 2.05 µg/mL) | 0.59 (≈ 0.257 µg/mL) | 4.7 (≈ 2.05 µg/mL) | active | – | – | > 4 | – | – | – | – | – |
| Cn1c(Cc2ccccc2C(F)(F)F)nc(C(=O)NCc2ccc(F)cc2)c(O)c1=O [Compound P10, N-(4-Fluorobenzyl)-5-hydroxy-1-methyl-6-oxo-2-(2-(trifluoromethyl)benzyl)-1,6-dihydropyrimidine-4-carboxamide] | > 100 | > 100 | 2.3 (≈ 1 µg/mL) | 18.8 (≈ 8.19 µg/mL) | 2.3 (≈ 1 µg/mL) | 18.8 (≈ 8.19 µg/mL) | – | – | – | – | – | – | – | – | – |
| Cn1c(Cc2ccccc2C(F)(F)F)nc(C(=O)NCc2ccc3c(c2)OCO3)c(O)c1=O [Compound P11, N-(Benzo[d][1,3]dioxol-5-ylmethyl)-5-hydroxy-1-methyl-6-oxo-2-(2-(trifluoromethyl)benzyl)-1,6-dihydropyrimidine-4-carboxamide] | > 100 | > 100 | 37.5 (≈ 17.3 µg/mL) | > 100 | 37.5 (≈ 17.3 µg/mL) | > 100 | – | – | – | – | – | – | – | – | – |
| CN(Cc1ccccc1)C(=O)c1nc(Cc2ccccc2C(F)(F)F)n(C)c(=O)c1O [Compound P12, N-Benzyl-5-hydroxy-N,1-dimethyl-6-oxo-2-(2-(trifluoromethyl)benzyl)-1,6-dihydropyrimidine-4-carboxamide] | > 100 | > 100 | > 100 | > 100 | > 100 | > 100 | – | – | – | – | loss of activity | – | – | – | – |
| CC(NC(=O)c1nc(Cc2ccccc2C(F)(F)F)n(C)c(=O)c1O)c1ccccc1 (stereo not shown) [Compound P13, 5-Hydroxy-1-methyl-6-oxo-N-(1-phenylethyl)-2-(2-(trifluoromethyl)benzyl)-1,6-dihydropyrimidine-4-carboxamide] | > 100 | > 100 | > 100 | > 100 | > 100 | > 100 | – | – | – | – | loss of activity | – | – | – | – |
| O=C(NCc1ccccc1)c1nc(Cc2ccccc2C(F)(F)F)[nH]c(=O)c1O [Compound P14, N-Benzyl-5-hydroxy-6-oxo-2-(2-(trifluoromethyl)benzyl)-1,6-dihydropyrimidine-4-carboxamide] | > 100 | > 100 | > 100 | > 100 | > 100 | > 100 | – | – | – | – | not tolerated | – | – | – | – |
| CC(c1ccccc1C(F)(F)F)c1nc(C(=O)NCc2ccccc2)c(O)c(=O)n1C (stereo not shown) [Compound P15, N-Benzyl-5-hydroxy-1-methyl-6-oxo-2-(1-(2-(trifluoromethyl)phenyl)ethyl)-1,6-dihydropyrimidine-4-carboxamide] | > 100 | > 100 | 3.1 (≈ 1.34 µg/mL) | 18.3 (≈ 7.89 µg/mL) | 3.1 (≈ 1.34 µg/mL) | 18.3 (≈ 7.89 µg/mL) | – | – | 5 fold | – | – | – | – | – | – |
| COc1c(C(=O)NCc2ccccc2)nc(Cc2ccccc2C(F)(F)F)n(C)c1=O [Compound P17, N-Benzyl-5-methoxy-1-methyl-6-oxo-2-(2-(trifluoromethyl)benzyl)-1,6-dihydropyrimidine-4-carboxamide] | > 100 | > 100 | > 100 | > 100 | > 100 | > 100 | – | – | – | – | inactive | – | – | – | – |
| Cn1c(Cc2ccccc2C(F)(F)F)nc(C(=O)CCc2ccccc2)c(O)c1=O [Compound P18, 5-Hydroxy-3-methyl-6-(3-phenylpropanoyl)-2-(2-(trifluoromethyl)benzyl)pyrimidin-4(3H)-one] | > 100 | > 100 | 12.5 (≈ 5.2 µg/mL) | 100 (≈ 41.6 µg/mL) | 12.5 (≈ 5.2 µg/mL) | 100 (≈ 41.6 µg/mL) | – | – | – | – | – | – | – | – | – |
| N-Benzyl-2-ethyl-5-hydroxy-1-methyl-6-oxo-1,6-dihydropyrimidine-4-carboxamide [Compound P03] | – | > 100 | – | – | – | – | – | >100 | – | – | complete loss of potency | > 100 | >100 | >100 | >100 |
| N-Benzyl-5-hydroxy-6-methoxy-2-(2-(trifluoromethyl)benzyl)pyrimidine-4-carboxamide [Compound P16] | – | > 100 | – | – | – | – | – | 37.5 | – | – | inactive | > 100 | >100 | >100 | 37.5 |
